Laboratory results from the supplement of paper PMC8253809.

Assays:
Assay in all cases: growth inhibition relative to DMSO (0) and positive control (1) (fraction); higher = more growth inhibition
HABS [1] = system: HABS (astrocyte control)
Protocol: (§1)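 Single-agent arm (compound 1 only) of the paxalisib / mirdametinib dose-matrix plates, 7 days, adherent 384-well. CellTiter-Glo RLU was normalised to fractional activity between DMSO (0) and the positive control (1).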

HGGX6 [2] = system: HGGX6 (H3.3 G34R paediatric high-grade glioma line)
Protocol: as §1

iASTRO [3] = system: iASTRO (astrocyte control)
Protocol: as §1

DIPGX7 [4] = system: DIPGX7 (H3.3 K27M diffuse intrinsic pontine glioma line)
Protocol: as §1

DIPGX37 [5] = system: DIPGX37 (H3.3 K27M diffuse intrinsic pontine glioma line)
Protocol: as §1

DIPGX29 [6] = system: DIPGX29 (H3.3 K27M diffuse intrinsic pontine glioma line)
Protocol: as §1

HGGX42 [7] = system: HGGX42 (H3.3 G34R paediatric high-grade glioma line)
Protocol: as §1

HABS [8] = system: HABS; remark: listed apart in the source
Protocol: (§2)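 Single-agent arm (compound 2 only) of the paxalisib / mirdametinib dose-matrix plates, 7 days, adherent 384-well. CellTiter-Glo RLU was normalised to fractional activity between DMSO (0) and the positive control (1).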

HGGX6 [9] = system: HGGX6; remark: listed apart in the source
Protocol: as §2

iASTRO [10] = system: iASTRO; remark: listed apart in the source
Protocol: as §2

DIPGX7 [11] = system: DIPGX7; remark: listed apart in the source
Protocol: as §2

DIPGX37 [12] = system: DIPGX37; remark: listed apart in the source
Protocol: as §2

DIPGX29 [13] = system: DIPGX29; remark: listed apart in the source
Protocol: as §2

HGGX42 [14] = system: HGGX42; remark: listed apart in the source
Protocol: as §2

O=C(NOC[C@H](O)CO)c1ccc(F)c(F)c1Nc1ccc(I)cc1F
growth inhibition
Conditions	0.009766 µM	0.01953 µM	0.03906 µM	0.07812 µM	0.15625 µM	0.3125 µM	0.625 µM	1.25 µM	5 µM	20 µM
DIPGX7 [4]	0.00514	-0.0128	-0.0429	-0.0583	-0.0706	-0.0675	-0.0189	0.069	0.226	0.169
DIPGX7 [11]	–	–	-0.134	-0.0334	-0.0318	-0.00916	0.0291	0.0919	0.221	0.144
DIPGX29 [6]	0.0664	0.079	0.113	0.122	0.121	0.185	0.301	0.44	0.787	0.903
DIPGX29 [13]	–	–	0.0243	0.134	0.108	0.159	0.301	0.477	0.795	0.903
DIPGX37 [5]	-0.0815	-0.107	-0.0915	-0.0274	0.0635	0.18	0.339	0.511	0.9225	0.9749
DIPGX37 [12]	–	–	-0.168	-0.0488	0.038	0.147	0.274	0.418	0.857	0.9777
HABS [1]	-0.13	-0.164	-0.228	-0.269	-0.234	-0.0414	0.126	0.275	0.665	0.853
HABS [8]	–	–	-0.334	-0.268	-0.258	-0.201	-0.0364	0.168	0.618	0.797
HGGX6 [2]	-0.059	-0.035	-0.0725	-0.0513	-0.0455	0.0143	0.0902	0.0994	0.353	0.581
HGGX6 [9]	–	–	-0.174	-0.0709	-0.0557	0.064	0.133	0.156	0.414	0.596
HGGX42 [7]	-0.0885	-0.0961	-0.107	-0.127	-0.145	-0.165	-0.133	-0.126	0.241	0.441
HGGX42 [14]	–	–	-0.199	-0.114	-0.121	-0.215	-0.198	-0.0799	0.284	0.494
iASTRO [3]	0.0411	0.0442	0.0806	0.0816	0.113	0.124	0.173	0.119	0.0668	0.0562
iASTRO [10]	–	–	0.0464	0.0732	0.0675	0.0849	0.116	0.0295	0.0268	0.058

CC1(C)OCCn2c1nc1c(N3CCOCC3)nc(-c3cnc(N)nc3)nc12 [GDC0084]
growth inhibition
Conditions	0.009766 µM	0.01953 µM	0.03906 µM	0.07812 µM	0.15625 µM	0.3125 µM	0.625 µM	1.25 µM	5 µM	20 µM
DIPGX7 [4]	0.0627	0.0708	0.104	0.186	0.381	0.622	0.771	0.8548	0.9176	0.977
DIPGX7 [11]	–	–	0.051	0.197	0.446	0.658	0.787	0.8579	0.9157	0.9671
DIPGX29 [6]	0.073	0.102	0.178	0.216	0.266	0.357	0.491	0.595	0.8914	0.9212
DIPGX29 [13]	–	–	0.0637	0.169	0.232	0.295	0.423	0.603	0.87	0.9389
DIPGX37 [5]	-0.0429	-0.0173	0.0381	0.138	0.304	0.453	0.566	0.71	0.9509	0.9986
DIPGX37 [12]	–	–	-0.00546	0.192	0.323	0.499	0.598	0.756	0.9558	0.99839
HABS [1]	0.075	0.0784	0.0871	0.118	0.171	0.208	0.326	0.489	0.807	0.9807
HABS [8]	–	–	-0.0282	0.105	0.153	0.193	0.29	0.463	0.807	0.9834
HGGX6 [2]	-0.0247	-0.0158	0.0132	0.0493	0.125	0.232	0.359	0.507	0.758	0.869
HGGX6 [9]	–	–	-0.045	0.0144	0.106	0.211	0.329	0.486	0.741	0.872
HGGX42 [7]	0.0532	0.0705	0.164	0.226	0.378	0.528	0.685	0.777	0.885	0.913
HGGX42 [14]	–	–	0.112	0.274	0.471	0.516	0.673	0.782	0.8721	0.898
iASTRO [3]	0.019	0.0114	0.00198	0.00243	0.00554	-0.0144	-0.0681	-0.0251	0.577	0.706
iASTRO [10]	–	–	0.0361	0.0247	0.0269	-0.0092	-0.0383	0.0569	0.631	0.726
